# Tests used:
# Format in all cases: functional
# [1] = test system: Candida albicans; test: Antifungal activity against Candida albicans ATCC 90023 assessed as inhibition of fungal growth incubated for 24 hrs by CLSI based microbroth dilution method
# [2] = test system: Aspergillus fumigatus; test: Antifungal activity against Aspergillus fumigatus assessed as inhibition of fungal growth incubated for 24 hrs by CLSI based microbroth dilution method
# [3] = test system: Candida albicans; test: Antifungal activity against Candida albicans assessed as inhibition of fungal growth incubated for 24 hrs by CLSI based microbroth dilution method
# [4] = test system: Candida tropicalis; test: Antifungal activity against Candida tropicalis assessed as inhibition of fungal growth incubated for 24 hrs by CLSI based microbroth dilution method
# [5] = test system: Candida parapsilosis; test: Antifungal activity against Candida parapsilosis ATCC 22019 assessed as inhibition of fungal growth incubated for 24 hrs by CLSI based microbroth dilution method; conditions: Lodderomyces parapsilosis
Structure (SMILES),MIC [1] [µM],MIC [2] [µM],MIC [3] [µM],MIC [4] [µM],MIC [5] [µM]
O=C1c2cccc3c(N/N=C/c4cc(Cl)ccc4O)ccc(c23)C(=O)N1CCO,313,313,626,313,626
CCCCc1nc(Cl)c(/C=N/Nc2ccc3c4c(cccc24)C(=O)N(CCO)C3=O)n1Cc1ccccc1F,15,58,58,15,15
CCCCc1nc(Cl)c(/C=N/Nc2ccc3c4c(cccc24)C(=O)N(CCO)C3=O)n1CC,137,68,274,34,548
CCCCCn1c(CCCC)nc(Cl)c1/C=N/Nc1ccc2c3c(cccc13)C(=O)N(CCO)C2=O,126,63,251,16,251
CCCCCN1C(=O)c2cccc3c(N/N=C(\C)Cn4c([N+](=O)[O-])cnc4C)ccc(c23)C1=O,1110,554,1110,1110,554
CCCN1C(=O)c2cccc3c(N/N=C(\C)Cn4c([N+](=O)[O-])cnc4C)ccc(c23)C1=O,1180,1180,1180,1180,1180
CCCCCCCn1c(CCCC)nc(Cl)c1/C=N/Nc1ccc2c3c(cccc13)C(=O)N(CCO)C2=O,119,119,119,60,238
Cc1ccc(/C=N/Nc2ccc3c4c(cccc24)C(=O)N(CCO)C3=O)o1,84,338,42,84,169
O=C1c2cccc3c(N/N=C/c4ccc(O)cc4O)ccc(c23)C(=O)N1CCO,655,327,327,655,327
O=C1c2cccc3c(N/N=C/c4ccco4)ccc(c23)C(=O)N1CCO,175,87,87,87,351
O=C1c2cccc3c(N/N=C/C=C/c4ccc([N+](=O)[O-])o4)ccc(c23)C(=O)N1CCO,38,76,9,38,152
CCCCN1C(=O)c2cccc3c(N/N=C(\C)Cn4c([N+](=O)[O-])cnc4C)ccc(c23)C1=O,1140,1140,1140,1140,1140
O=C1c2cccc3c(N/N=C/c4cccnc4)ccc(c23)C(=O)N1CCO,355,355,711,355,89
CCCCc1nc(Cl)c(/C=N/Nc2ccc3c4c(cccc24)C(=O)N(CCO)C3=O)n1CC1CCCCC1,7,2,120,15,60
CCCCc1nc(Cl)c(/C=N/Nc2ccc3c4c(cccc24)C(=O)N(CCO)C3=O)n1Cc1ccc(Cl)cc1Cl,3,214,54,54,13
C#CCN1C(=O)c2cccc3c(N/N=C(\C)Cn4c([N+](=O)[O-])cnc4C)ccc(c23)C1=O,1180,296,1180,1180,1180
O=C1c2cccc3c(N/N=C/c4nccs4)ccc(c23)C(=O)N1CCO,350,350,699,175,175
C=CCn1c(CCCC)nc(Cl)c1/C=N/Nc1ccc2c3c(cccc13)C(=O)N(CCO)C2=O,33,17,67,2,134

Structure (SMILES),MIC [1] [µM],MIC [2] [µM],MIC [3] [µM],MIC [4] [µM],MIC [5] [µM]
CCCCc1nc(Cl)c(/C=N/Nc2ccc3c4c(cccc24)C(=O)N(CCO)C3=O)n1Cc1ccc(F)cc1,4,117,58,58,58
CN1C(=O)c2cccc3c(N/N=C/c4ccc([N+](=O)[O-])o4)ccc(c23)C1=O,175,87,87,87,350
CCCCc1nc(Cl)c(/C=N/Nc2ccc3c4c(cccc24)C(=O)N(CCO)C3=O)n1Cc1ccc(Cl)cc1,7,57,57,28,57
CCCCc1nc(Cl)c(/C=N/Nc2ccc3c4c(cccc24)C(=O)N(CCO)C3=O)n1CC(=O)OCC,61,61,30,2,244
C/C(Cn1c([N+](=O)[O-])cnc1C)=N\Nc1ccc2c3c(cccc13)C(=O)N(c1ccc(Cl)cc1Cl)C2=O,953,238,238,238,119
O=C1c2cccc3c(N/N=C/c4ccc([N+](=O)[O-])s4)ccc(c23)C(=O)N1CCO,78,19,39,156,78
CCCCc1nc(Cl)c(/C=N/Nc2ccc3c4c(cccc24)C(=O)N(CCO)C3=O)n1Cc1ccc([N+](=O)[O-])cc1,7,111,111,28,14
CCCCc1nc(Cl)c(/C=N/Nc2ccc3c4c(cccc24)C(=O)N(CCO)C3=O)n1CCC,67,33,133,67,266
O=C1c2cccc3c(N/N=C/c4ccccn4)ccc(c23)C(=O)N1CCO,355,355,355,711,711
O=C1c2cccc3c(N/N=C/c4ncc[nH]4)ccc(c23)C(=O)N1CCO,183,183,367,92,6
CCN1C(=O)c2cccc3c(N/N=C(\C)Cn4c([N+](=O)[O-])cnc4C)ccc(c23)C1=O,1220,1220,1220,1220,1220
CCCCc1nc(Cl)c(/C=N/Nc2ccc3c4c(cccc24)C(=O)N(CCO)C3=O)n1C,71,18,71,141,565
O=C1c2cccc3c(N/N=C/c4ccc[nH]4)ccc(c23)C(=O)N1CCO,92,367,183,367,46
CCN1C(=O)c2cccc3c(N/N=C/c4ccc([N+](=O)[O-])o4)ccc(c23)C1=O,84,338,42,84,168
O=C1c2cccc3c(N/N=C/c4ccc(CO)o4)ccc(c23)C(=O)N1CCO,5,10,21,5,21
C[n+]1ccc(/C=N/Nc2ccc3c4c(cccc24)C(=O)N(CCO)C3=O)cc1,8,127,16,255,64
C[n+]1ccccc1/C=N/Nc1ccc2c3c(cccc13)C(=O)N(CCO)C2=O,255,127,32,32,64
CCCCc1nc(Cl)c(/C=N/Nc2ccc3c4c(cccc24)C(=O)N(CCO)C3=O)[nH]1,18,73,36,73,291
